From patent US5304560A, “Quinazoline derivatives and their preparation” (Fujisawa Pharmaceutical Co., Ltd., priority 1990, dated 1994)

Tests used:
[1] = system: spontaneous hypertensive rats; assay: Hypotensive effect on spontaneous hypertensive rats; type: in vivo, rat; settings: dose 1 mg/kg, oral, in 0.5% methylcellulose; 15 to 25-week-old male spontaneous hypertensive rats
Procedure: Test 3 [Hypotensive effect on spontaneous hypertensive rats]
15 to 25-Week-old male spontaneous hypertensive rats with mean arterial blood pressure of about 160-200 mmHg, weighing 300-350 g, were used. The animals were cannulated in the left femoral artery and the mean blood pressure and heart rate were measured with a pressure-transducer. The animals were deprived of food for about 18 hours before oral dosing. The Test Compound was suspended in 0.5% methylcellulose, and given orally.

DA2 receptor = target: T1, DA2 receptor (Rattus norvegicus, UniProt P61169); assay: Dopamine receptor (DA2 receptor) binding assay; settings: [3H]spiperone 0.2 nM; rat striatum 160 μg/ml; 37° C., 10 minutes, pH 7.4
T1 construct: The final tissue concentration of rat striatum was 160 μg/ml; from tissue; host or cells: rat striatum (printed 'stratum'), washed homogenate
Procedure: Test 1 [Dopamine receptor (DA2 receptor) binding assay]
The affinity for DA2 receptor of a Test Compound was determined following in vitro receptor binding assays.
Male rats weighing 150-300 g were decapitated and the stratum were dissected from their brains. The tissue was homogenized in 30 volumes of buffer which consisted of 50 mM Tris-HCl (pH 7.4 at 25° C.), 120 mM sodium chloride, 5 mM potassium chloride, 1 mM calcium chloride, 1 mM magnesium chloride, 10 μM pargirine, and 0.1% ascorbic acid. The homogenate was centrifuged at 50,000 g for 15 minutes. The pellet was resuspended in 30 volumes of the buffer. The tissue suspension was centrifuged and suspended again in the same way.
Incubation tubes received 100 μl of [phenyl-4-^3 H]spiperone, 100 μl of the Test Compound and 0.8 ml of tissue suspension during binding assays. The concentration of [phenyl-4-^3 H]spiperone was 0.2 nM. The final tissue concentration of rat striatum was 160 μg/ml. […] The filters were counted by liquid scintillation counter.
Specific binding of the [^3 H]spiperone was determined in the presence of 1 μM butaclamol. The IC50 value of the Test Compound was calculated from the data of [^3 H]spiperone binding in the presence of 10^-9 M, 10^-8 M, 10^-7 M and 10^-6 M Test Compound.

[2] = system: reserpine-induced DOPA accumulation; assay: Inhibition of reserpine-induced DOPA accumulation; type: in vivo, Male SD rats; settings: dose 3.2 mg/kg, oral, 2 hours before sacrifice; reserpine 1 mg/kg s.c. 17-19 hours before; striatum DOPA
Procedure: Test 2 [Inhibition of reserpine-induced DOPA accumulation]
Male SD rats weighing 300-400 g were used in this test. Rats were pretreated with reserpine (1 mg/kg, S.C.) 17-19 hours before sacrifice and then fasted. Test Compound was given orally to the rats 2 hours before sacrifice. [m-Hydroxybenzylhydrazine (100 mg/kg, i.p.) was given 30 minutes before sacrifice.] Each rat was exposed to microwaves using a head-focus microwave applicator for 1.5 seconds. The whole brain was removed and further separated into the striatum.
DOPA was determined as follows; the striatum was homogenized in 9 volumes of 0.1N perchloric acid solution (0.4% EDTA·2Na). The homogenate was centrifuged at 10,000 rpm for 1 minutes. The supernatant was applied to high performance liquid chromatography.

T1 sequence (P61169 whole entry): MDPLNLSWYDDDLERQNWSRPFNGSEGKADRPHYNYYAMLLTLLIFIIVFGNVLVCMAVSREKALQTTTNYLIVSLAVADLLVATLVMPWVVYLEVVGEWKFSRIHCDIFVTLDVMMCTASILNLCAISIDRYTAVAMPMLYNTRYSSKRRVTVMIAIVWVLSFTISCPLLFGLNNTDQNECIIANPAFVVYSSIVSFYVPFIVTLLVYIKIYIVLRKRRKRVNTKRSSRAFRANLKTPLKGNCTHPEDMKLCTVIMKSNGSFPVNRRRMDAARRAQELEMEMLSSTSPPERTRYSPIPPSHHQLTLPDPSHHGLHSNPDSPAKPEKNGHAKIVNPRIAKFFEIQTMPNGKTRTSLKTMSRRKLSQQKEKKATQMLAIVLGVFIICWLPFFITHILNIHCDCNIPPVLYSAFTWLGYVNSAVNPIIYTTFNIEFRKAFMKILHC

Br.O=c1[nH]c(=O)n(CCCCN2CC=C(c3ccccc3)CC2)c2cc(O)ccc12 [Compound A, 1-[4-(4-phenyl-1,2,3,6-tetrahydropyridin-1-yl)butyl]-7-hydroxy-2,4(1H,3H)-quinazolinedione hydrobromide]
Maximum decrease of blood pressure (%) [1]: 19%
IC50 (DA2 receptor): 7.4 nM
Inhibition (%) [2]: 10%
